Data on 63 compounds can be found in a melting point compilation (Tetko et al.; mined from patent text by program, amines drawn as free bases though some values may be those of a salt).

Usually melting point stands for the temperature of the solid-liquid transition. As for `Cc1ccc(NC(=O)c2cc(Br)c(Br)s2)cc1C`, the melting point lay in the range of 216 to 217 °C.

As to `CCc1ccc2oc3cc(C#N)cnc3c(=O)c2c1`, the melting point lay in the range of 183 to 185 °C.

Turning to `O=C(O)c1ccc(SC(=O)c2ccc(O)c(C34CC5CC(CC(C5)C3)C4)c2)cc1`, the melting point was in the range of 272 to 274 °C.

For `Brc1ccc2cc(OCc3ccc4ccccc4n3)ccc2c1`, the melting point lay within 135 to 137 °C.

`CNC(=O)N1CCc2[nH]cnc2C1`: the melting point came out at 213 °C.

As to `CN(C)c1nnc(-c2ccc3occ(-c4cccc(OC(F)(F)F)c4)c3c2)o1`, the melting point lay in the range of 105 to 106 °C.

Compound `Cc1nc(/C=C/c2ccc3ccccc3n2)cc(-n2nc(C)nc2C)n1` returned a melting point of 153 to 155 °C.

Take `CN1COc2cc3c4c(cccc4c21)C(=O)N(O)C3=O`: the melting point fell in the range of 263 to 265 °C.

In turn, `CC(C(=O)Nc1ccccc1)n1nc(O)c2[nH]c3cc(Cl)ccc3c(=O)c2c1=O` (stereo not drawn) returned a melting point of 215 °C.

In the case of `CCCCOP(=O)(CCCCCC1(C(=O)NCC(F)(F)F)c2ccccc2-c2ccccc21)OCCCC`, the melting point was 88 to 91 °C.

`CON(C)C(=O)c1cc(O)cc2cc(-c3ccc(O)cc3)oc12` returned a melting point of 125 to 127 °C.

On to `COc1cc(-n2nc(C#N)cc2-c2ccc(S(C)(=O)=O)cc2)ccc1Cl`, for which the melting point was 203 to 205 °C.

In the case of `O=[N+]([O-])c1nccn1CC(O)CN1CCCCC1` (stereo not drawn), the melting point lay in the range of 108 to 109 °C.

Turning to `CNC(Cc1ccccc1NC(=O)C(C)(C)C)c1cccnc1` (stereo not drawn), the melting point lay in the range of 91.5 to 96 °C.

`Cc1cc2c(cc1Cl)N(C(=O)CN1CCN(C)CC1)c1ccccc1N(C)S2(=O)=O`: the melting point fell in the range of 156 to 158 °C.

`COC(=O)N1CCC[C@@H](OC)[C@@H]1CC(=O)Cn1cnc2c(Cl)c(Cl)sc2c1=O` (relative stereo) yielded a melting point of 58 to 62 °C.

The compound `CCOC(=O)C1Cc2cc(C(=O)c3ccccc3F)c(O)c(Cl)c2O1` (stereo not drawn) returned a melting point of 119 to 120 °C.

`COc1cc(C(OC(C)=O)C(=O)O)cc(OC)c1OC` (stereo not drawn) registered a melting point of 135 to 139 °C.

`c1ccc(OCc2ccc3ccccc3n2)cc1`: the melting point was 79.5 to 80.5 °C.

In turn, `CN1C=CCC(C(=O)NCCc2ccc(OC(=O)C(C)(C)C)c(OC(=O)C(C)(C)C)c2)=C1` yielded a melting point of 45 to 48 °C.

In the case of `O=S(=O)(NCC(F)(F)F)c1ccc(Nc2nc(OCC3CCCCC3)c3nc[nH]c3n2)cc1`, the melting point lay in the range of 223 to 224 °C.

For the compound `Cc1cc(Nc2nc(Nc3ccc(N)cc3)nc3ccccc23)[nH]n1`, the melting point lay within 164 to 167 °C.

For the compound `COc1ccc(CN(C)CCCCc2ccc(NC(=O)c3cccc4c(=O)c5cccc([N+](=O)[O-])c5[nH]c34)cc2)cc1OC`, the melting point was determined as 174 °C.

On to `CCOC(=O)C1CCN(c2nc(COc3ccc(CCl)cc3OC)c(C)s2)CC1`, for which the melting point was in the range of 98 to 99 °C.

As to `Clc1ccc(C2=Nc3cccnc3Nc3ccccc32)cc1`, the melting point fell in the range of 203 to 204 °C.

Compound `CCOC(=O)COc1ccc(Cc2ccc(O)cc2)c(Cl)c1Cl` returned a melting point of 102 to 103 °C.

Consider `O=c1[nH]c2ncc(-c3ccccc3)nc2n1CC1CCCCC1`, for which the melting point fell in the range of 253 to 255 °C.

For `COc1ccc(/C=C/c2nc3ccccc3c(=O)o2)cc1OC`, the melting point lay within 175 to 179 °C.

As to `CCOC(=O)c1sc(N2C[C@@H](Cc3ccccc3)NC2=O)nc1C`, the melting point is 102 to 103 °C.

The compound `Cc1cc(Cl)cc(C(=O)Nc2nc(C)cs2)n1` displayed a melting point of 176 °C.

Compound `Nc1cc(-c2ccnc3c(C(=O)c4cccs4)cnn23)cs1` returned a melting point of 174 to 176 °C.

The compound `CCOCc1nc2c(N)nc3cccnc3c2n1CC(C)(C)NC(=O)NC(C)C` gave a melting point of 172 to 174 °C.

In turn, `CCCN1CCN(Cc2ccc3c(c2O)OCO3)CC1` had a melting point of 115 to 117 °C.

In turn, `CCCCCCCCCCCCCCCCCCOc1cc(OCCCOc2ccccc2OCc2ccccc2)cc(C(=O)OCc2ccccc2)c1` had a melting point of 49 to 50 °C.

Compound `CC(=O)Nc1ncc2ncn(COC(COC(C)C)COC(C)C)c2n1` showed a melting point of 85 to 86 °C.

`Cc1cc(C(=O)O)ccc1OCCNC(=O)C1Cc2ccccc2N1S(=O)(=O)c1ccc(-c2cccc(C(F)(F)F)c2)cc1` (stereo not drawn) came in with a melting point of 102 to 108 °C.

Compound `N#CN(Cc1ccccc1)C(=O)CCCC(=O)N(C#N)Cc1ccccc1` displayed a melting point of 97.5 to 100 °C.

`O=C(c1nc(-c2ccccc2)nc2ccccc12)N1CCC(CCO)CC1`: the melting point amounted to 146 °C.

In turn, `COc1ccc2c(c1)c(Cc1cc(=O)n(C3CCCCCC3)[nH]1)c(C)n2C(=O)c1ccc(Cl)cc1` came in with a melting point of 145 to 148 °C.

As to `O=C1CN2C(=O)N(c3cc(Cl)cc(Cl)c3)C(=O)C2(Cc2ccc(Br)cc2)C1` (stereo not drawn), the melting point turned out to be 85.4 °C.

`C=CCOc1cc(-n2c(OC)nc(C(F)(F)C(F)(F)F)cc2=O)c(F)cc1Cl` registered a melting point of 82 to 83 °C.

Take `CCn1c(C(=O)c2cc(C)cc(CCC#N)c2)c(C(C)C)c(=O)[nH]c1=O`: the melting point was 173 to 174 °C.

In turn, `CSC(C[C@H](NC(=O)[C@H](CC(C)C)NC(=O)OCc1ccccc1)C(C)=O)c1ccccc1` (stereo partly drawn) came in with a melting point of 119 to 120 °C.

Compound `CCOC(=O)c1ncc2[nH]c3cccc(COC(C)=O)c3c2c1COC` showed a melting point of 129 to 133 °C.

On to `N#Cc1ccc(-c2ccc(C(=O)O)s2)cc1`, for which the melting point is above 300 °C.

In turn, `C[C@H](NC(=O)OC(C)(C)C)C(=O)N[C@H](CCC(=O)O)C(N)=O` came in with a melting point of 98 °C.

Consider `O=C(O)C1SCSCC12OCCO2` (stereo not drawn), for which the melting point is 195 to 197 °C.

For the compound `COC(=O)C12OCC34C(CC5C(C)=C(O)C(=O)CC5(C)C3C(O)C1O)OC(=O)C(OC(=O)C=C(C)C(C)C)C24` (stereo not drawn), the melting point lay in the range of 220 to 223 °C.

In turn, `O=C1NCCCN1C1(CO)CCN(Cc2ccccc2)CC1` had a melting point of 210 °C.

The compound `CCn1c(=O)n(C)c(=O)c2c(C)onc21` yielded a melting point of 88 to 89 °C.

Take `Clc1cccc(-c2nc(Cl)c3ccccc3n2)c1`: the melting point was 157 to 158 °C.

Turning to `N#Cc1cccn1-c1ccc(CN2C(=O)c3ccccc3C2=O)cc1`, the melting point is 167 to 168 °C.

With `CC(=O)COc1cc(C)c(Br)c(C)c1Cc1ccc(C(C)C)cc1`, the melting point fell in the range of 93 to 94 °C.

With `Nc1ccnc(-c2nnn(Cc3cc(C(F)(F)F)cc(C(F)(F)F)c3)c2-c2ccccc2)c1C(=O)c1ccccc1Cl`, the melting point was determined as 156 °C.

Consider `COc1cc2c(cc1OC)-c1cc(=O)n(C(C)C)c(=O)n1CC2`, for which the melting point lay in the range of 190 to 192 °C.

As to `CCOC(=O)C1=C(C)Nc2nc(N3CCOCC3)nc(N3CCOCC3)c2C1c1cccc(C#N)c1` (stereo not drawn), the melting point is 210 °C.

`CN(CC(O)C(N)C(=O)c1cccc(C(F)(F)F)c1)c1ccc(Cl)cc1` (stereo not drawn) registered a melting point of 128 to 132 °C.

For `CC(=O)OC1CC(=O)N(CC(N)=O)C1` (stereo not drawn), the melting point is 84 to 86 °C.

Take `CCc1nc2c(N)nc3cc(-c4ccc(F)nc4)cnc3c2n1CC(C)(C)O`: the melting point was in the range of 250 to 251 °C.

Compound `Nc1ccc(F)c(-c2ccc3ncccc3c2)c1F` registered a melting point of 178 to 179 °C.

In turn, `O=C1C=CC(OCc2ccccc2)N1S(=O)(=O)c1ccccc1` (stereo not drawn) gave a melting point of 56 to 58 °C.

Take `CCCCCCCCCCCCCCCC(=O)OCCN(C)C`: the melting point was 46 to 48 °C.

Take `NC(=O)Cn1cc(-c2ccccc2)c2cc(Cl)ccc21`: the melting point was 220 to 221 °C.
